From patent US12336982B2 (RODEO THERAPEUTICS CORPORATION, priority 2018, dated 2025)

Target: T1, recombinant 15-PGDH (Homo sapiens, UniProt P15428)
T1 sequence (P15428 1-266): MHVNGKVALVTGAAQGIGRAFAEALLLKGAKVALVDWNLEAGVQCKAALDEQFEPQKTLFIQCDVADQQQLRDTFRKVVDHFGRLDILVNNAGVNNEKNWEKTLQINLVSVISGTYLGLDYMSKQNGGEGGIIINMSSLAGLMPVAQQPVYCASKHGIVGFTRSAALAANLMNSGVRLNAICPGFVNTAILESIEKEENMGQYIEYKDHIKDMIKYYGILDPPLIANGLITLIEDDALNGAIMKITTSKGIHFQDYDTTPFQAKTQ
Format: biochemical
Settings: recombinant human 15-PGDH, in vitro; read-out: PDGH Assay-IC50
Source text: The Recombinant 15-PGDH is human unless otherwise specified.

Structure (SMILES) | IC50
COC(=O)Nc1ncc(-c2cc(-c3cccnc3)c3c(N)c([S+]([O-])C4CCC4)sc3n2)cn1 (centres unmarked) [Example 117] | 2.5 to 10 nM
Nc1c([S+]([O-])C2CCC2)sc2nc(-c3cnc(NCCO)nc3)cc(-c3ccc(F)cn3)c12 (centres unmarked) [Example 118] | 2.5 to 10 nM
COCCC[S+]([O-])c1sc2nc(-c3cncnc3)cc(-c3ccnc(C)c3)c2c1N (centres unmarked) [Example 119] | < 2.5 nM
COCC[S+]([O-])c1sc2nc(-c3cnc4c(cnn4C)c3)cc(-c3ccccc3)c2c1N (centres unmarked) [Example 120] | < 2.5 nM
Nc1c([S+]([O-])C2CCC2)sc2nc(-c3cncnc3)cc(-c3ncccc3F)c12 (centres unmarked) [Example 121] | < 2.5 nM
Nc1c([S+]([O-])C2CCC2)sc2nc(-c3cnc(NCCO)nc3)cc(-c3ncccc3F)c12 (centres unmarked) [Example 122] | < 2.5 nM
COCCC[S+]([O-])c1sc2nc(-c3cnc4nn(C)cc4c3)cc(-c3ccccc3)c2c1N (centres unmarked) [Example 123] | < 2.5 nM
COCC[S+]([O-])c1sc2nc(-c3cnc4nn(C)cc4c3)cc(-c3ccccc3)c2c1N (centres unmarked) [Example 124] | < 2.5 nM
COCCC[S+]([O-])c1sc2nc(-c3cnc(NCCO)nc3)cc(-c3ccccc3)c2c1N (centres unmarked) [Example 125] | < 2.5 nM
COCC[S+]([O-])c1sc2nc(-c3cnc(NCCO)nc3)cc(-c3ccccc3)c2c1N (centres unmarked) [Example 126] | < 2.5 nM
COCC[S+]([O-])c1sc2nc(-c3cncnc3)cc(-c3ccnc(C)c3)c2c1N (centres unmarked) [Example 127] | < 2.5 nM
Nc1c([S+]([O-])C2CCC2)sc2nc(-c3cncnc3)cc(-c3ccc(C4COC4)cn3)c12 (centres unmarked) [Example 128] | < 2.5 nM
Nc1c([S+]([O-])C2CCC2)sc2nc(-c3cnc(C(=O)NCCO)nc3)cc(-c3ccccc3)c12 (centres unmarked) [Example 129] | < 2.5 nM
COCC[S+]([O-])c1sc2nc(-c3cncnc3)cc(C(F)(F)F)c2c1N (centres unmarked) [Example 130] | < 2.5 nM
COCCC[S+]([O-])c1sc2nc(-c3cncnc3)cc(C(F)(F)F)c2c1N (centres unmarked) [Example 131] | < 2.5 nM
COCC[S+]([O-])c1sc2nc(-c3cnc(N)nc3)cc(C(F)(F)F)c2c1N (centres unmarked) [Example 132] | < 2.5 nM
COCCC[S+]([O-])c1sc2nc(-c3cnc(N)nc3)cc(C(F)(F)F)c2c1N (centres unmarked) [Example 133] | < 2.5 nM
COCCC[S+]([O-])c1sc2nc(-c3ccc(N)nc3)cc(C(F)(F)F)c2c1N (centres unmarked) [Example 134] | 2.5 to 10 nM
COCC[S+]([O-])c1sc2nc(-c3ccc(N)nc3)cc(C(F)(F)F)c2c1N (centres unmarked) [Example 135] | 2.5 to 10 nM
COCCC[S+]([O-])c1sc2nc(-c3cnc(C)nc3)cc(C(F)(F)F)c2c1N (centres unmarked) [Example 136] | 2.5 to 10 nM
COCC[S+]([O-])c1sc2nc(-c3cnc(C)nc3)cc(C(F)(F)F)c2c1N (centres unmarked) [Example 137] | < 2.5 nM
Nc1c([S+]([O-])C2CCC2)sc2nc(-c3cnc(NCCO)nc3)cc(C(F)(F)F)c12 (centres unmarked) [Example 138] | 2.5 to 10 nM
COCCC[S+]([O-])c1sc2nc(-c3cnc(NCCO)nc3)cc(C(F)(F)F)c2c1N (centres unmarked) [Example 139] | 2.5 to 10 nM
COCC[S+]([O-])c1sc2nc(-c3cnc(NCCO)nc3)cc(C(F)(F)F)c2c1N (centres unmarked) [Example 140] | 2.5 to 10 nM
Nc1c([S+]([O-])C2CCC2)sc2nc(-c3cnc(NCCOCCO)nc3)cc(-c3ccccc3)c12 (centres unmarked) [Example 141] | < 2.5 nM

Structure (SMILES) | IC50
Nc1c([S+]([O-])C2CCC2)sc2nc(-c3cnc(NCCN4CCS(=O)(=O)CC4)nc3)cc(-c3ccccc3)c12 (centres unmarked) [Example 142] | < 2.5 nM
Nc1ncc(-c2cc(-c3ccc(C4COC4)cc3)c3c(N)c([S+]([O-])C4CCC4)sc3n2)cn1 (centres unmarked) [Example 143] | < 2.5 nM
CN(CCO)c1ncc(-c2cc(-c3ccccc3)c3c(N)c([S+]([O-])C4CCC4)sc3n2)cn1 (centres unmarked) [Example 144] | < 2.5 nM
Nc1c([S+]([O-])C2CCC2)sc2nc(-c3cnc(NCCO)nc3)cc(C3CC3)c12 (centres unmarked) [Example 145] | < 2.5 nM
COCCC[S@@+]([O-])c1sc2nc(-c3cnc(N)nc3)cc(C3CC3)c2c1N [Example 146] | < 2.5 nM
Nc1c([S+]([O-])C2CCC2)sc2nc(-c3cncnc3)cc(-c3ccc(C4COC4)nc3)c12 (centres unmarked) [Example 147] | < 2.5 nM
COCC[S@@+]([O-])c1sc2nc(-c3cncnc3)cc(C3CC3)c2c1N [Example 148] | < 2.5 nM
COCC[S@+]([O-])c1sc2nc(-c3cncnc3)cc(C3CC3)c2c1N [Example 149] | ≥ 10 nM
COCC[S@@+]([O-])c1sc2nc(-c3cnc(N)nc3)cc(C3CC3)c2c1N [Example 150] | < 2.5 nM
COCC[S@+]([O-])c1sc2nc(-c3cnc(N)nc3)cc(C3CC3)c2c1N [Example 151] | ≥ 10 nM
Nc1c([S+]([O-])C2CCC2)sc2nc(-c3cnc(NCCO)nc3)cc(-c3ccccc3F)c12 (centres unmarked) [Example 152] | < 2.5 nM
COCCC[S@@+]([O-])c1sc2nc(-c3cncnc3)cc(C3CC3)c2c1N [Example 153] | < 2.5 nM
Cc1cc(-c2cc(-c3cncnc3)nc3sc([S+]([O-])C4CCC4)c(N)c23)ccn1 (centres unmarked) [Example 154] | < 2.5 nM
Nc1c([S+]([O-])C2CCC2)sc2nc(-c3cnc(NCC(=O)O)nc3)cc(-c3ccccc3)c12 (centres unmarked) [Example 155] | < 2.5 nM
NCCOCCNc1ncc(-c2cc(-c3ccccc3)c3c(N)c([S+]([O-])C4CCC4)sc3n2)cn1 (centres unmarked) [Example 156] | < 2.5 nM
Nc1c([S+]([O-])C2CCC2)sc2nc(-c3cnc(NCCO)nc3)cc(-c3cccc(F)c3)c12 (centres unmarked) [Example 157] | < 2.5 nM
Nc1c([S+]([O-])C2CCC2)sc2nc(-c3cnc(NCCO)nc3)cc(-c3ccc(F)cc3)c12 (centres unmarked) [Example 158] | 2.5 to 10 nM
Nc1c([S+]([O-])C2CCC2)sc2nc(-c3cnc(NCCO)nc3)cc(-c3ccc(Cl)cc3)c12 (centres unmarked) [Example 159] | < 2.5 nM
Nc1c([S+]([O-])C2CCC2)sc2nc(-c3cnc(NCCO)nc3)cc(-c3ccc(C(F)(F)F)cc3)c12 (centres unmarked) [Example 160] | 2.5 to 10 nM
COCCC[S+]([O-])c1sc2nc(-c3ccc(=O)n(C)c3)cc(-c3ccccc3)c2c1N (centres unmarked) [Example 161] | < 2.5 nM
COCCC[S+]([O-])c1sc2nc(-c3cncnc3)cc(C)c2c1N (centres unmarked) [Example 163] | < 2.5 nM
Cc1cc(-c2cncnc2)nc2sc([S+]([O-])C3CCC3)c(N)c12 (centres unmarked) [Example 164] | < 2.5 nM
CNC(=O)c1ncc(-c2cc(-c3ccccc3)c3c(N)c([S+]([O-])CCCOC)sc3n2)cn1 (centres unmarked) [Example 165] | 2.5 to 10 nM
COCCC[S+]([O-])c1sc2nc(-c3cnc(O)nc3)cc(-c3ccccc3)c2c1N (centres unmarked) [Example 166] | 2.5 to 10 nM
COCC[S+]([O-])c1sc2nc(-c3ccc(=O)[nH]c3)cc(-c3ccccc3)c2c1N (centres unmarked) [Example 167] | < 2.5 nM

Structure (SMILES) | IC50
Nc1c([S+]([O-])C2CCC2)sc2nc(-c3cnc(NCCO)nc3)cc(-c3cccc(C(F)(F)F)c3)c12 (centres unmarked) [Example 168] | 2.5 to 10 nM
Cn1cc(-c2cc(-c3cnc(N)nc3)nc3sc([S+]([O-])C4CCC4)c(N)c23)cn1 (centres unmarked) [Example 169] | < 2.5 nM
COCCC[S@@+]([O-])c1sc2nc(-c3cncnc3)cc(-c3ccnc(C)c3)c2c1N [Example 170] | < 2.5 nM
COCCC[S+]([O-])c1sc2nc(-c3cnc4c(cnn4C)c3)cc(C3CC3)c2c1N (centres unmarked) [Example 172] | 2.5 to 10 nM
COCC[S+]([O-])c1sc2nc(-c3cncnc3)cc(C)c2c1N (centres unmarked) [Example 173] | < 2.5 nM
Nc1c([S+]([O-])C2CCC2)sc2nc(-c3ccc(=O)[nH]c3)cc(-c3ccc(C4COC4)cc3)c12 (centres unmarked) [Example 174] | 2.5 to 10 nM
COCC[S+]([O-])c1sc2nc(-c3cncnc3)cc(-c3ccnn3C)c2c1N (centres unmarked) [Example 175] | 2.5 to 10 nM
COCC[S+]([O-])c1sc2nc(-c3cnc4nn(C)cc4c3)cc(C3CC3)c2c1N (centres unmarked) [Example 176] | < 2.5 nM
CN(CCO)c1ncc(-c2cc(-c3ccccc3)c3c(N)c([S@+]([O-])C4CCC4)sc3n2)cn1 [Example 179] | < 2.5 nM
CN(CCO)c1ncc(-c2cc(-c3ccccc3)c3c(N)c([S@@+]([O-])C4CCC4)sc3n2)cn1 [Example 180] | ≥ 10 nM
Nc1c([S@+]([O-])C2CCC2)sc2nc(-c3cnc(NCCO)nc3)cc(-c3ncccc3F)c12 [Example 181] | < 2.5 nM
Nc1c([S@@+]([O-])C2CCC2)sc2nc(-c3cnc(NCCO)nc3)cc(-c3ncccc3F)c12 [Example 182] | ≥ 10 nM
Nc1c([S+]([O-])C2CCC2)sc2nc(-c3cncnc3)cc(-c3ccc(OCCO)cc3)c12 (centres unmarked) [Example 183] | < 2.5 nM
Nc1c([S@+]([O-])C2CCC2)sc2nc(-c3cnc(NCCOCCO)nc3)cc(-c3ccccc3)c12 [Example 184] | < 2.5 nM
Nc1c([S@@+]([O-])C2CCC2)sc2nc(-c3cnc(NCCOCCO)nc3)cc(-c3ccccc3)c12 [Example 185] | ≥ 10 nM
COCC[S+]([O-])c1sc2nc(-c3cnc(N(C)CCO)nc3)cc(C(F)(F)F)c2c1N (centres unmarked) [Example 186] | 2.5 to 10 nM
COCCC[S+]([O-])c1sc2nc(-c3cnc(N(C)CCO)nc3)cc(C(F)(F)F)c2c1N (centres unmarked) [Example 187] | 2.5 to 10 nM
CN(CCO)c1ncc(-c2cc(C(F)(F)F)c3c(N)c([S+]([O-])C4CCC4)sc3n2)cn1 (centres unmarked) [Example 188] | 2.5 to 10 nM
Nc1c([S+]([O-])C2CCC2)sc2nc(-c3cccnc3)nc(C3CC3)c12 (centres unmarked) [Example 189] | < 2.5 nM
COCC[S+]([O-])c1sc2nc(-c3cccnc3)nc(C3CC3)c2c1N (centres unmarked) [Example 190] | < 2.5 nM
COCCC[S+]([O-])c1sc2nc(-c3cccnc3)nc(C3CC3)c2c1N (centres unmarked) [Example 191] | 2.5 to 10 nM
Nc1c([S+]([O-])C2CCC2)sc2nc(-c3cnc(NCCO)nc3)cc(-c3cccc(Cl)c3)c12 (centres unmarked) [Example 192] | < 2.5 nM
Nc1c([S+]([O-])C2CCC2)sc2nc(-c3cnc(NCC(CO)CO)nc3)cc(-c3ccccc3)c12 (centres unmarked) [Example 193] | < 2.5 nM
Nc1c([S+]([O-])C2CCC2)sc2nc(-c3cnc(N4CCOCC4)nc3)cc(-c3ccccc3)c12 (centres unmarked) [Example 194] | 2.5 to 10 nM
